Earlier results in patent US20140276034A1, “Apparatus Detection of Circulatory Anomalies” (Cardiox Corporation, priority 2013, published 2014).

Details: manufacturers specified guideline; cited from earlier work

SMILES: CC1(C)C(=CC=CC=CC=CC2=[N+](CCCCS(=O)(=O)[O-])c3ccc4ccccc4c3C2(C)C)N(CCCCS(=O)(=O)[O-])c2ccc3ccccc3c21.[Na+] [ICG, 1H-benz(e)indolium, 2-[7-[1,3-dihydro-1,1-dimethyl-3-(4-sulfobutyl)-2H-benz[e]indo-2-ylidene]-1,3,5-heptatrienyl]-1,1-dimethyl-3-(4-sulfobutyl)-hydroxide, inner salt, sodium]
- maximum ICG dose per day: 2 milligrams per kilogram of body weight
